Experimental data as given in patent US20220133753A1, “COMPOSITIONS AND METHODS USEFUL FOR TREATING DISEASES CHARACTERIZED BY INSUFFICIENT PANTOTHENATE KINASE ACTIVITY” (Comet Therapeutics, Inc., priority 2016, published 2022).
“Also recorded” adds a separate entry of the source. Where two headings read alike, the source gives them in different places.

Key:
Drosophila S2 cells = assay: HoPan treatment of Drosophila S2 cells in combination with CoA or 4′-phosphopantetheine; format: cell-based; settings: HoPan treated S2 cells
Description: HoPan treatment of Drosophila S2 Cell in combination with CoA or 4′-phosphopantetheine treatment: Drosophila Schneider's S2 cells were maintained at standard conditions as explained above. Cells in the exponential phase of growth were used for all the experiments. Different indicated concentrations of CoA or 4′-phosphopantetheine (deuterium labelled PPanSH(D4) or unlabeled PPanSH) were added to S2 cells either in the presence or absence of 0.5 mM HoPan (Zhou Fang Pharm Chemical, China) for 48 h. Similarly, Drosophila S2 cells were treated with different concentrations of PPanSH(D4) at either 25° C. or 4° C. and cells were then harvested at various time points to access transport of PPanSH(D4). Stable isotope labelled PPanSH containing 4 deuterium atoms was purchased from Syncom (Groningen, The Netherlands) as a sodium salt (chemical structure is provided in FIG. 13A). As a read out cell count, intracellular total CoA and PPanSH levels (both labelled and unlabeled levels wherever appropriate) and histone acetylation levels were analyzed as explained below.
Drosophila S2 Cell Immunofluorescence Staining: For immunofluorescence Drosophila S2 cells were seeded on Poly-L-Lysine coated (Sigma-Aldrich) glass microscope slides and allowed to settle for 45 min. Cells were fixed with 3.7% formaldehyde (Sigma Aldrich) for 20 min, washed briefly with PBS+0.1% Triton-X-100 (Sigma Aldrich) and permeabilized with PBS+0.2% Triton-X-100 for 20 min. The slides were incubated in primary antibody (rabbit anti-AcLys, Cell Signaling Cat No: 9441, 1:500) to visualize histone acetylation levels in PBS+0.1% Triton-X-100 overnight and after an additional washing step in PBS+0.1% Triton-X-100 they were incubated in secondary goat anti-rabbit-Alexa488 antibody (Molecular Probes) for two hours at room temperature (RT). F-actin was detected with Rhodamin-Phalloidin (20 U/ml)(Invitrogen) and DNA by staining with DAPI (0.2 ug/ml) (Thermo Scientific). Finally the samples were mounted in 80% glycerol and analyzed using a Leica fluorescence microscope with Leica software. Adobe Photoshop and Illustrator (Adobe Systems Incorporated, San Jose, Calif., USA) were used for image assembly.

[1] = Conversion of CoA in mouse serum by HPLC; format: in vitro ADME
From the text: (§1) The conversion of CoA to 4′-phosphopantetheine was further investigated in mouse serum and in human serum.

[2] = Conversion of CoA in human serum by HPLC; format: in vitro ADME
From the text: as §1

[3] = system: homozygous dPPCDC mutants and dPPCDC RNAi expressing flies; assay: Drosophila dPPCDC mutant and dPPCDC RNAi flies, development, lifespan and fertility with CoA or Vitamin B5; format: in vivo, Drosophila melanogaster
Description: Drosophila Maintenance and Crosses: Drosophila melanogaster stocks/crosses were raised on standard cornmeal agar fly food (containing water, agar 17 g/L, sugar 54 g/L, yeast extract 26 g/L and nipagin 1.3 g/L) at 25° C. The stocks were either obtained from the Bloomington Stock Centre (Indiana University, USA), VDRC (Vienna Drosophila RNAi Collection, Vienna, Austria) or from the Exelixis Collection (Harvard Medical School) and rebalanced to generate eGFP-positive balancers. The stocks used were: w1118; dPANK/fbl1 hypomorph5,6; dPANK/fblnull (y[1] w[*]; Mi{y[+mDint2]=MIC}fbl[MI04001]/TM3, Sb[1] Ser[1], Bloomington 36941); dPPCDC mutant (w[1118], PBac{w[+mC]=WH}Ppcdc[f00839]/CyO, Bloomington 18377); UAS-dPPCDCRNAi line (VDRC 104495); dCOASY mutant (PBac{RB}Ppat-Dpck[e00492], Exelixis). The UAS-RNAi constructs were expressed ubiquitously using the Actin-Gal4 drivers (y[1] w[*]; P{w[+mC]=Act5C-GAL4}25FO1/CyO, y[+], Bloomington 4414). […]
Drosophila Life Span: One-day old adults of Drosophila homozygous mutants or RNAi-constructs expressing lines, were collected with appropriate controls and were kept on standard fly food at 25° C. with or without CoA or Vitamin B5 (Sigma) at necessary concentration (50 ul added on top of the fly food and dried). The flies were counted every 12-24 hrs and flipped to new fly food vials with or without CoA or Vitamin B5.
Drosophila Ovary Rescue Experiment: UAS-dPPCDC RNAi constructs were ubiquitously expressed under the control of Actin-Gal4. […] The vials (or plates) from the crosses (with eggs that were being laid during the 4 day period of CoA rescue) were kept for another 10 days and offspring numbers were counted after eclosion.
Drosophila Ovary dissection and staining: Drosophila ovaries were collected in cold PBS and fixed in 4% formaldehyde (from methanol-free 16% Formaldehyde Solution, Thermo Scientific) for 45 min at RT. […] Finally the samples were mounted in 80% glycerol and analyzed on a Zeiss-LSM780 NLO confocal microscope with Zeiss Zen software. […]

[4] = system: homozygous dCOASY mutants; assay: Drosophila dCOASY mutants, larval development with CoA or Vitamin B5; format: in vivo, Drosophila melanogaster; settings: added to the food
Description: Drosophila Maintenance and Crosses: Drosophila melanogaster stocks/crosses were raised on standard cornmeal agar fly food (containing water, agar 17 g/L, sugar 54 g/L, yeast extract 26 g/L and nipagin 1.3 g/L) at 25° C. The stocks were either obtained from the Bloomington Stock Centre (Indiana University, USA), VDRC (Vienna Drosophila RNAi Collection, Vienna, Austria) or from the Exelixis Collection (Harvard Medical School) and rebalanced to generate eGFP-positive balancers. The stocks used were: w1118; dPANK/fbl1 hypomorph5,6; dPANK/fblnull (y[1] w[*]; Mi{y[+mDint2]=MIC}fbl[MI04001]/TM3, Sb[1] Ser[1], Bloomington 36941); dPPCDC mutant (w[1118], PBac{w[+mC]=WH}Ppcdc[f00839]/CyO, Bloomington 18377); UAS-dPPCDCRNAi line (VDRC 104495); dCOASY mutant (PBac{RB}Ppat-Dpck[e00492], Exelixis). The UAS-RNAi constructs were expressed ubiquitously using the Actin-Gal4 drivers (y[1] w[*]; P{w[+mC]=Act5C-GAL4}25FO1/CyO, y[+], Bloomington 4414). Heterozygous flies/larvae for the mutants and the Actin-Gal4 driver crossed to isogenic w1118 flies (Actin-Gal4/+) were used as controls for the RNAi-constructs expressing flies.
Drosophila Larval Collection and Larval Count Experiment: One week old flies (in the ratio 10 females and 5 males) were kept on 5 ml of standard fly food in a vial at 25° C. with or without various concentrations of CoA or Vitamin B5 (Sigma). […]

[5] = liver extracts, −20° C., after a week; cited from earlier work

With `CC(C)(COP(=O)(O)OP(=O)(O)OC[C@H]1O[C@@H](n2cnc3c(N)ncnc32)[C@H](O)[C@@H]1OP(=O)(O)O)[C@@H](O)C(=O)NCCC(=O)NCCS` [CoA, Coenzyme A] the “intracellular concentration of CoA” value (Drosophila S2 cells; compound added to the culture medium, HPLC) was “restored the intracellular concentration of CoA”, the “rescue of HoPan-induced decrease in cell count” value (Drosophila S2 cells; compound added to the medium) was “rescued” and the “rescue of HoPan-induced histone acetylation defect” value (Drosophila S2 cells; compound added to the medium) was “rescued”. For the same compound, the “intracellular levels of 4′-phosphopantetheine” value (Drosophila S2 cells; external supplementation, HPLC) was “significantly increased”, the “conversion of CoA in serum” value [1] was “converted to 4′-phosphopantetheine” and the “conversion of CoA in serum” value [2] was “converted to 4′-phosphopantetheine”. For the same compound, the “egg production and fertility of females” value ([3]; dPPCDC RNAi expressing females) was “improved egg-production significantly; also recorded: produced a significant number of eggs; also recorded: produced viable eggs that resulted in offspring”, the “lifespan with CoA” value ([3]; dPPCDC RNAi expressing flies, CoA added to the food, from 10 days without) was 30 days and the “development with CoA” value ([3]; homozygous dPPCDC mutants, CoA added to the food) was “extended larval development to late pupal stage”. The “rescue of the phenotype” value [4] was “did not result in a significant rescue”, the “CoA, share of the initial concentration still present” value (3 h) was > 95% and the “conversion of CoA in serum” value (bovine (fetal calf)) was “converted into 4′-phosphopantetheine”. The CoA degraded (bovine (fetal calf), 30 min) was 90% and the “CoA degrades to” value [5] was 50%.
